Assay results taken from patent publication US5023079A, “Heptaene V-28-3 antibiotic derivative” (Ajinomoto Co., Inc., priority 1987, dated 1991).

Tests used:
[1] = test system: Candida albicans (strain C3); experiment: Experimental (mouse) candidiasis, survival ratio; assay type: in vivo, Candida albicans (strain C3) in male ICR-strain mice; details: 1 hr after infection, day-8, groups of 10 mice
Method: Male ICR-strain mice, weighing 20-22 g, were used in groups of 10. A 0.2 ml cell suspension of Candida albicans (strain C3) was injected IV via the tail vein, inoculum size being 2.5×10^7 cells/mouse. The test drugs (0.2 ml) were administered IV via the tail vein once at 1 hr after the infection.
The therapeutic effect of the test drugs was expressed as the survival ratio at day-8 after infection.

[2] = Acute toxicity (LD50, IV); details: mouse, in vivo, male ICR-strain mice, survivors at day-5, read-out: LD50 (50% lethal dose)
Method: An acute toxicity study was carried out with male ICR-strain mice. LD50 (50% lethal dose) was calculated on the basis of the number of survivors at day-5 after IV administration of the drugs.

C[C@@H]1[C@H](O)[C@@H](C)/C=C/C=C/C=C/C=C/C=C/C=C/C=C/[C@H](O[C@@H]2O[C@H](C)[C@@H](O)[C@H](N)[C@@H]2O)C[C@@H]2O[C@](O)(C[C@@H](O)C[C@@H](O)[C@H](O)CC[C@@H](O)C[C@@H](O)CC(=O)O[C@H]1C)C[C@H](O)[C@H]2C(=O)O [amphotericin B]
Survival ratio ([1]; 0.125 mg/kg IV once): 0%
Survival ratio ([1]; 0.25 mg/kg IV once): 70%
Survival ratio ([1]; 0.5 mg/kg IV once): 100%
LD50 at 120 h [2]: 4.1 mg/kg
